Assay results: patent US20260001928A1 (CORTERIA PHARMACEUTICALS, priority 2022, published 2026)
*1 amine or outer side, *2 acyl side, *3 side chain or, on linkers, in order; H or OH if unused. Where a SMILES comes first, the peptide text is derived from it. Side-chain parts run from the residue outwards. [ ]: non-standard residue; d: D form. The star is where a group is joined. C18 diacid = O=C(O)CCCCCCCCCCCCCCCCC(=O)*; γGlu = O=C(O)[C@H](CCC(=O)[*:2])N[*:1]; C14 diacid = O=C(O)CCCCCCCCCCCCC(=O)*; X1 = O=C(CC1(N[*:1])CCOCC1)[*:2]; Api = NC1(C(=O)O)CCNCC1; Aib = CC(C)(N)C(=O)O

Legend:
[1] = In vitro subcutaneous tissue supernatant (SCts) stability and metabolite identification, rat; format: in vitro ADME; design: remaining at 2 h: dose or concentration left out as unconfirmed; details: male, Sprague Dawley; rat subcutaneous tissue supernatant (SCts), 37° C, 2 h
[2] = Chemical stability in buffer (pH 7.4 / pH 4.5), % purity loss; format: physicochemical; details: 40° C. vs 5° C., 14 or 28 days; for Buffer stability pH 7.4 % purity loss: 100 mM phosphate buffer pH 7.4
Summary of the method: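 LC-UV gave % loss after 14 or 28 days of storage at 5 °C or 40 °C. Samples were diluted supernatants from compound incubated 1 h at room temperature at 10 mg/mL target, in 100 mM acetate pH 4.5 or 100 mM phosphate pH 7.4.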

[3] = Pharmacokinetics in male Sprague Dawley rats after subcutaneous administration; format: in vivo; details: plasma, rat, SC, 0.05 mg/kg
Protocol: The pharmacokinetics of UCN-2 derivatives was studied in male Sprague Dawley rats after subcutaneous administration (SC) at 0.05, 0.1, 0.3 or 1 mg/kg. Peptides were formulated as a solution in 10 mM phosphate pH 7.4 buffer+glycerol 85% (2.3% v/v)). […] The supernatant (200 μL) was analyzed by LC-MSMS. Pharmacokinetic parameters were calculated using established non-compartmental methods. The area under the plasma concentration curve versus time (AUC) was determined using Watson LIMS (version 7.6), with linear trapezoidal interpolation in the ascending slope and logarithmic trapezoidal interpolation in the descending slope. The portion of the AUC from the last measurable concentration to infinity was estimated from the equation, Ct/kel, where Ct represents the last measurable concentration and kel is the elimination rate constant. The latter was determined from the concentration curve versus time by linear regression at the terminal phase of the semi-logarithmic plot.

Sprague Dawley rats = assay: Effect on systolic blood pressure, telemetry in Sprague Dawley rats; format: in vivo, rat; details: 0.1 mg/kg SC
Summary of the method: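 Values are % change from a 1 h pre-dose baseline in systolic pressure, tracked by telemetry for up to 48 hours after a single 0.1 mg/kg subcutaneous dose. Rats (Sprague Dawley, n=2 per peptide) carried aortic catheters and recovered at least 10 days post-surgery; duration of action marks the last time point still showing an effect.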

human CRF2a receptor = target: T1, human CRF2a receptor (Homo sapiens, UniProt Q13324); assay: Activity at human CRF2a receptor, cAMP functional assay in TeloHEAC cells; format: cell-based; details: TeloHEAC cells stably expressing human CRF2a receptor, relative to urocortin 2 (100 nM = 100%)
T1 construct: expressed in transfected cells; host or cells: TeloHEAC cells
T1 sequence (Q13324 1-411): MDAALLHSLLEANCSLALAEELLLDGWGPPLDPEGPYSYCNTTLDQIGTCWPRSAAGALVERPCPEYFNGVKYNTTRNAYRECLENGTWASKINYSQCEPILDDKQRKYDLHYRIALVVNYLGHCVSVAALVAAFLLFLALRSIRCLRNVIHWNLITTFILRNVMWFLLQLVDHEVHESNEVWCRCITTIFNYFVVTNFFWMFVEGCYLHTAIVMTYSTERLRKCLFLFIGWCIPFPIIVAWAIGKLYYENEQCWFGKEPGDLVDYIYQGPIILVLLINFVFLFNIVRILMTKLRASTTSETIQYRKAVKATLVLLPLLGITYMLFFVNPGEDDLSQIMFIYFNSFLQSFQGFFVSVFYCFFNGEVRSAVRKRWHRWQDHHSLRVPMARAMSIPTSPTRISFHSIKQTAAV
Summary of the method: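 TeloHEAC cells stably expressing human CRF2a (10000 cells/well, suspended in HBSS/20 mM HEPES with 2 mM IBMX) were exposed to compounds for 30 min at 37 °C. cAMP was read as the 665/620 nm fluorescence ratio after 1 h at room temperature. EC50 was derived relative to 100 nM urocortin 2, set as 100%.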

CFR1R receptor = target: T2, CFR1R receptor (Homo sapiens, UniProt P34998); assay: Activity at anti-target CFR1R receptor, cAMP assay in CRF1R-overexpression CHO-K1 cells; format: cell-based; details: 100% = Sauvagine at 100 nM; for EC50: cAMP
T2 construct: host or cells: CHO-K1 (clone 2)
T2 sequence (P34998 24-415): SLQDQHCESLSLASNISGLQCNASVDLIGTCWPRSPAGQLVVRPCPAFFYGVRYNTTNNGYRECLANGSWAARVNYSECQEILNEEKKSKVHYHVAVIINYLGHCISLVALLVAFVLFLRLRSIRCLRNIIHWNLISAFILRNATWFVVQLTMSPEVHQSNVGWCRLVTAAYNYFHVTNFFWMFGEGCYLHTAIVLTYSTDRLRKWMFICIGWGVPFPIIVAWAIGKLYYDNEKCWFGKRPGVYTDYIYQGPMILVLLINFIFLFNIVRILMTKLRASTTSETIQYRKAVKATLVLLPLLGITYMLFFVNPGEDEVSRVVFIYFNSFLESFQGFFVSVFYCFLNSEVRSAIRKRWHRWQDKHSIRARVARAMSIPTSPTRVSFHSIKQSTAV
Summary of the method: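 Clone 2; cryopreserved stocks (10% DMSO); 4000 cells/well final; 100% activation = Sauvagine 100 nM; otherwise as TeloHAEC protocol.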

| SMILES | remaining at 2 h [1] [%] | Buffer stability pH 7.4 % purity loss [2] | AUC(0-t) [3] [ng·h/mL] | Cmax [3] [ng/mL] | Tmax [3] [h] | half-life [3] [h] | Systolic blood pressure (Mean) % change from baseline, 8 h (Sprague Dawley rats; 8 h, n=2) [%] | Systolic blood pressure (Mean) % change from baseline, 12 h (Sprague Dawley rats; 12 h, n=2) [%] | Systolic blood pressure (Mean) % change from baseline, 24 h (Sprague Dawley rats; 24 h, n=2) [%] | Duration of action (Sprague Dawley rats; last time point with an effect on BP still observed) [h] | EC50 (human CRF2a receptor) [pM] | Emax (% I) (CFR1R receptor) | Buffer stability pH 4.5 % purity loss ([2]; 100 mM acetate buffer pH 4.5) | EC50 (CFR1R receptor) [pM] |
| --- | --- | --- | --- | --- | --- | --- | --- | --- | --- | --- | --- | --- | --- | --- |
| CC[C@H](C)[C@H](NC(C)=O)C(=O)N[C@H](C(=O)N[C@@H](CC(C)C)C(=O)N[C@@H](CO)C(=O)N[C@@H](CC(C)C)C(=O)N[C@@H](CC(=O)O)C(=O)N[C@@H](C(=O)N1CCC[C@H]1C(=O)N[C@H](C(=O)N[C@@H](CCCCN)C(=O)N[C@@H](CC(C)C)C(=O)N[C@@H](CCCCNC(=O)CC[C@H](NC(=O)CCCCCCCCCCCCC(=O)O)C(=O)O)C(=O)N[C@@H](CCCCN)C(=O)N[C@H](C(=O)N[C@@H](CC(C)C)C(=O)N[C@@H](CC(C)C)C(=O)N[C@@H](CCC(=O)O)C(=O)N[C@@H](CCC(N)=O)C(=O)N[C@@H](CCC(=O)O)C(=O)N[C@@H](CCCCN)C(=O)N[C@@H](CCC(N)=O)C(=O)N[C@@H](CCCCN)C(=O)N[C@@H](CCCCN)C(=O)N[C@@H](CCC(N)=O)C(=O)N[C@@H](CCCNC(=N)N)C(=O)N[C@@H](CCC(=O)O)C(=O)N[C@@H](CCC(N)=O)C(=O)N[C@@H](C)C(=O)N[C@@H](CCC(=O)O)C(=O)N[C@H](C(=O)N[C@@H](CC(N)=O)C(=O)NC(C)(C)C(=O)N[C@@H](CCC(N)=O)C(=O)N[C@H](C(=O)N[C@@H](CC(C)C)C(=O)N[C@@H](C)C(=O)N[C@@H](CCC(N)=O)C(=O)N[C@H](C(N)=O)C(C)C)[C@@H](C)CC)[C@@H](C)O)[C@@H](C)CC)[C@@H](C)CC)C(C)C)C(C)C [compound 82] (Ac-IVLSLD[dV]PIKLK([γGlu-C14 diacid])KILLEQEKQKKQREQAETN[Aib]QILAQV-NH2) | 82 | 0.0/Not Tested % | 221 | 64 | 0.75 | 1.4 | −33 | −4 | 11 | 14 | – | – | – | – |
| CC[C@H](C)[C@H](NC(C)=O)C(=O)N[C@H](C(=O)N[C@@H](CC(C)C)C(=O)N[C@@H](CO)C(=O)N[C@@H](CC(C)C)C(=O)N[C@@H](CC(=O)O)C(=O)N[C@@H](C(=O)N1CCC[C@H]1C(=O)N[C@H](C(=O)N[C@@H](CCCCN)C(=O)N[C@@H](CC(C)C)C(=O)N[C@@H](CCCCNC(=O)CC[C@H](NC(=O)CCCCCCCCCCCCCCCCC(=O)O)C(=O)O)C(=O)N[C@@H](CCCCN)C(=O)N[C@H](C(=O)N[C@@H](CC(C)C)C(=O)N[C@@H](CC(C)C)C(=O)N[C@@H](CCC(=O)O)C(=O)N[C@@H](CCC(N)=O)C(=O)N[C@@H](CCC(=O)O)C(=O)N[C@@H](CCCCN)C(=O)N[C@@H](CCC(N)=O)C(=O)N[C@@H](CCCCN)C(=O)N[C@@H](C)C(=O)N[C@@H](CCC(N)=O)C(=O)N[C@@H](CCCNC(=N)N)C(=O)N[C@@H](CCC(=O)O)C(=O)N[C@@H](CCC(N)=O)C(=O)N[C@@H](C)C(=O)N[C@@H](CCC(=O)O)C(=O)N[C@H](C(=O)N[C@@H](CC(N)=O)C(=O)NC1(C(=O)N[C@@H](CCC(N)=O)C(=O)N[C@H](C(=O)N[C@@H](CC(C)C)C(=O)N[C@@H](C)C(=O)N[C@@H](CCC(N)=O)C(=O)N[C@H](C(N)=O)C(C)C)[C@@H](C)CC)CCNCC1)[C@@H](C)O)[C@@H](C)CC)[C@@H](C)CC)C(C)C)C(C)C [compound 187] (Ac-IVLSLD[dV]PIKLK([γGlu-C18 diacid])KILLEQEKQKAQREQAETN[Api]QILAQV-NH2) | 82 | 0.0/0.0 ^ % | 2100 | 137 | 7 | 9.7 | – | – | – | – | 260 | 37 | 0.0/0.0 ^ % | – |
| CC[C@H](C)[C@H](NC(C)=O)C(=O)N[C@H](C(=O)N[C@@H](CC(C)C)C(=O)N[C@@H](CO)C(=O)N[C@@H](CC(C)C)C(=O)N[C@@H](CC(=O)O)C(=O)N[C@@H](C(=O)N1CCC[C@H]1C(=O)N[C@H](C(=O)N[C@@H](CCCCN)C(=O)N[C@@H](CC(C)C)C(=O)N[C@@H](CCCCNC(=O)CC[C@H](NC(=O)CCCCCCCCCCCCCCCCC(=O)O)C(=O)O)C(=O)N[C@@H](CCCCN)C(=O)N[C@H](C(=O)N[C@@H](CC(C)C)C(=O)N[C@@H](CC(C)C)C(=O)N[C@@H](CCC(=O)O)C(=O)N[C@@H](CCC(N)=O)C(=O)N[C@@H](CCC(=O)O)C(=O)N[C@@H](CCCCN)C(=O)N[C@@H](CCC(N)=O)C(=O)N[C@@H](CCCCN)C(=O)NC(C)(C)C(=O)N[C@@H](CCC(N)=O)C(=O)N[C@@H](CCCNC(=N)N)C(=O)N[C@@H](CCC(=O)O)C(=O)N[C@@H](CCC(N)=O)C(=O)N[C@@H](C)C(=O)N[C@@H](CCC(=O)O)C(=O)N[C@H](C(=O)N[C@@H](CC(N)=O)C(=O)NC(C)(C)C(=O)N[C@@H](CCC(N)=O)C(=O)N[C@H](C(=O)N[C@@H](CC(C)C)C(=O)N[C@@H](C)C(=O)N[C@@H](CCC(N)=O)C(=O)N[C@H](C(N)=O)C(C)C)[C@@H](C)CC)[C@@H](C)O)[C@@H](C)CC)[C@@H](C)CC)C(C)C)C(C)C [compound 190] (Ac-IVLSLD[dV]PIKLK([γGlu-C18 diacid])KILLEQEKQK[Aib]QREQAETN[Aib]QILAQV-NH2) | 95 | 0.0/Not Tested % | 1930 | 112 | 5 | 5.7 | – | – | – | – | 300 | 9 | – | > 250000 |
| CC[C@H](C)[C@H](NC(C)=O)C(=O)N[C@H](C(=O)N[C@@H](CC(C)C)C(=O)N[C@@H](CO)C(=O)N[C@@H](CC(C)C)C(=O)N[C@@H](CC(=O)O)C(=O)N[C@@H](C(=O)N1CCC[C@H]1C(=O)N[C@H](C(=O)N[C@@H](CCCCN)C(=O)N[C@@H](CC(C)C)C(=O)N[C@@H](CCCCNC(=O)CC[C@H](NC(=O)CCCCCCCCCCCCCCCCC(=O)O)C(=O)O)C(=O)N[C@@H](CCCCN)C(=O)N[C@H](C(=O)N[C@@H](CC(C)C)C(=O)N[C@@H](CC(C)C)C(=O)N[C@@H](CCC(=O)O)C(=O)N[C@@H](CCC(N)=O)C(=O)N[C@@H](CCC(=O)O)C(=O)N[C@@H](CCCCN)C(=O)N[C@@H](CCC(N)=O)C(=O)N[C@@H](CCCCN)C(=O)N[C@@H](CCCCN)C(=O)N[C@@H](CCC(N)=O)C(=O)N[C@@H](CCCNC(=N)N)C(=O)N[C@@H](CCC(=O)O)C(=O)N[C@@H](CCC(N)=O)C(=O)N[C@@H](C)C(=O)N[C@@H](CCC(=O)O)C(=O)N[C@H](C(=O)N[C@@H](CC(N)=O)C(=O)NC1(CC(=O)N[C@@H](CCC(N)=O)C(=O)N[C@H](C(=O)N[C@@H](CC(C)C)C(=O)N[C@@H](C)C(=O)N[C@@H](CCC(N)=O)C(=O)N[C@H](C(N)=O)C(C)C)[C@@H](C)CC)CCOCC1)[C@@H](C)O)[C@@H](C)CC)[C@@H](C)CC)C(C)C)C(C)C [compound 199] (Ac-IVLSLD[dV]PIKLK([γGlu-C18 diacid])KILLEQEKQKKQREQAETN[X1]QILAQV-NH2) | 83 | 0/Not Tested % | 1620 | 111 | 6 | 10.2 | – | – | – | – | 160 | 11 | – | > 250000 |
